# According to PMC8429728, “TNK1 is a ubiquitin-binding and 14-3-3-regulated kinase that can be targeted to block tumor growth” (Nature Communications, 2021):
# Read-outs that look alike come from different tables or passages of the source.
# How the values were obtained:
# Assay in all cases: biochemical
# Parameters in all cases: Reaction Biology 371-kinase panel at Km ATP, per cent enzyme activity relative to DMSO, single dose in duplicate
# MEKK6 = biological target: T1, MEKK6 (Homo sapiens, UniProt O95382); conditions: duplicate measurements, Km ATP
# T1 construct: gene MAP3K6
# Procedure, shortened: (§1)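 In vitro selectivity panel: 371 kinases, inhibitor at 300 nM; % activity vs DMSO; IC50 by variable-slope sigmoidal fit, bottom = 0.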
# LYN B = biological target: T2, LYN B (Homo sapiens, UniProt P07948); conditions: duplicate measurements, Km ATP
# T2 construct: isoform B
# Procedure, shortened: as §1
# CK1g2 = biological target: T3, CK1g2 (Homo sapiens, UniProt P78368); conditions: duplicate measurements, Km ATP
# T3 construct: gene CSNK1G2
# Procedure, shortened: as §1
# SSTK/TSSK6 = SSTK/TSSK6 (Homo sapiens, UniProt Q9BXA6); conditions: duplicate measurements, Km ATP
# Procedure, shortened: as §1
# RAF1 = RAF1 (Homo sapiens, UniProt P04049); conditions: duplicate measurements, Km ATP
# Procedure, shortened: as §1
# GRK5 = GRK5 (Homo sapiens, UniProt P34947); conditions: duplicate measurements, Km ATP
# Procedure, shortened: as §1
# DCAMKL1 = biological target: T4, DCAMKL1 (Homo sapiens, UniProt O15075); conditions: duplicate measurements, Km ATP
# T4 construct: gene DCLK1
# Procedure, shortened: as §1
# IRAK4 = IRAK4 (Homo sapiens, UniProt Q9NWZ3); conditions: duplicate measurements, Km ATP
# Chain of IRAK4 (Q9NWZ3 whole entry): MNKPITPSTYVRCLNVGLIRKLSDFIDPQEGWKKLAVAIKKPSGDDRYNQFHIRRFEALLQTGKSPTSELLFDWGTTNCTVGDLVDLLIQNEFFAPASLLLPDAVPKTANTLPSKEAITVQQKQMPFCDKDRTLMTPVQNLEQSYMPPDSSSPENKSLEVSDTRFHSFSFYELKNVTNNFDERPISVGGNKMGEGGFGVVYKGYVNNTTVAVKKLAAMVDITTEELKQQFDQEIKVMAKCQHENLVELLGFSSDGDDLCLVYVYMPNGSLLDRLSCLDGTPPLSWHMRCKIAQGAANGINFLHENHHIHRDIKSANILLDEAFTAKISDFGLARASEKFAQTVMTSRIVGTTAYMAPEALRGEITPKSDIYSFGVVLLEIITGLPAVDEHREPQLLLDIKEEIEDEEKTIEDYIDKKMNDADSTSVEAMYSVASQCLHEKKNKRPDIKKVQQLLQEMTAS
# Procedure, shortened: as §1
# PKCd = biological target: T5, PKCd (Homo sapiens, UniProt Q05655); conditions: duplicate measurements, Km ATP
# T5 construct: gene PRKCD
# T5 sequence (Q05655 whole entry): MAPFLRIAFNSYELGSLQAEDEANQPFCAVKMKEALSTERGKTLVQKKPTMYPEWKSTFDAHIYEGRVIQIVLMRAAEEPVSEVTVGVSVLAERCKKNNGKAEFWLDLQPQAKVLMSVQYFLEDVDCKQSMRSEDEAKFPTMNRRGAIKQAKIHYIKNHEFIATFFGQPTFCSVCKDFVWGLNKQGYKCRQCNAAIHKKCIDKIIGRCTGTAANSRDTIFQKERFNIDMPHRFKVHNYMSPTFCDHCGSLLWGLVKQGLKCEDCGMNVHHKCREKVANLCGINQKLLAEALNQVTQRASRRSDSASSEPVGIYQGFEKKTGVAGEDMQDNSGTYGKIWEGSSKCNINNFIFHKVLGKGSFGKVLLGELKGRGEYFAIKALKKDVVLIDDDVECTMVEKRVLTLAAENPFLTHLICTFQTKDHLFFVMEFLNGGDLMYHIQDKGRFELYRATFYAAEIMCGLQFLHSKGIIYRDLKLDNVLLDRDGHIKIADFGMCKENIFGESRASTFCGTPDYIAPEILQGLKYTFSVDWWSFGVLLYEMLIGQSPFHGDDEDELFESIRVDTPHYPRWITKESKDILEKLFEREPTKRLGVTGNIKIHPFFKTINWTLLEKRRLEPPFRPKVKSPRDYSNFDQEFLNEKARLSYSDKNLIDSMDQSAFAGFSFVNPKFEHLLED
# Procedure, shortened: as §1
# WEE1 = WEE1 (Homo sapiens, UniProt P30291); conditions: duplicate measurements, Km ATP
# Procedure, shortened: as §1
# NEK11 = NEK11 (Homo sapiens, UniProt Q8NG66); conditions: duplicate measurements, Km ATP
# Procedure, shortened: as §1
# MEK1 = biological target: T6, MEK1 (Homo sapiens, UniProt Q02750); conditions: duplicate measurements, Km ATP
# T6 construct: gene MAP2K1
# T6 sequence (Q02750 whole entry): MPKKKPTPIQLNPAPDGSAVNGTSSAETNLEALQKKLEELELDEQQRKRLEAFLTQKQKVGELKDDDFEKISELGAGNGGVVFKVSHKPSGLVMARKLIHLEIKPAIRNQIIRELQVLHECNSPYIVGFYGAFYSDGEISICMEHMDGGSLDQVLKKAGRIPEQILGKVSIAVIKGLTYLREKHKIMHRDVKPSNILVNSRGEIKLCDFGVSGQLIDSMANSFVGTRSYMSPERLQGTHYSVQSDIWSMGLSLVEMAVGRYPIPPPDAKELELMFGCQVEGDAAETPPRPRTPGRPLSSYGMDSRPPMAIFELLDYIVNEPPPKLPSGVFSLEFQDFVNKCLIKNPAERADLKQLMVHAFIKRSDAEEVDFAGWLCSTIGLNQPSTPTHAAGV
# Procedure, shortened: as §1
# FLT1/VEGFR1 = FLT1/VEGFR1 (Homo sapiens, UniProt P17948); conditions: duplicate measurements, Km ATP
# Chain of FLT1/VEGFR1 (P17948 whole entry): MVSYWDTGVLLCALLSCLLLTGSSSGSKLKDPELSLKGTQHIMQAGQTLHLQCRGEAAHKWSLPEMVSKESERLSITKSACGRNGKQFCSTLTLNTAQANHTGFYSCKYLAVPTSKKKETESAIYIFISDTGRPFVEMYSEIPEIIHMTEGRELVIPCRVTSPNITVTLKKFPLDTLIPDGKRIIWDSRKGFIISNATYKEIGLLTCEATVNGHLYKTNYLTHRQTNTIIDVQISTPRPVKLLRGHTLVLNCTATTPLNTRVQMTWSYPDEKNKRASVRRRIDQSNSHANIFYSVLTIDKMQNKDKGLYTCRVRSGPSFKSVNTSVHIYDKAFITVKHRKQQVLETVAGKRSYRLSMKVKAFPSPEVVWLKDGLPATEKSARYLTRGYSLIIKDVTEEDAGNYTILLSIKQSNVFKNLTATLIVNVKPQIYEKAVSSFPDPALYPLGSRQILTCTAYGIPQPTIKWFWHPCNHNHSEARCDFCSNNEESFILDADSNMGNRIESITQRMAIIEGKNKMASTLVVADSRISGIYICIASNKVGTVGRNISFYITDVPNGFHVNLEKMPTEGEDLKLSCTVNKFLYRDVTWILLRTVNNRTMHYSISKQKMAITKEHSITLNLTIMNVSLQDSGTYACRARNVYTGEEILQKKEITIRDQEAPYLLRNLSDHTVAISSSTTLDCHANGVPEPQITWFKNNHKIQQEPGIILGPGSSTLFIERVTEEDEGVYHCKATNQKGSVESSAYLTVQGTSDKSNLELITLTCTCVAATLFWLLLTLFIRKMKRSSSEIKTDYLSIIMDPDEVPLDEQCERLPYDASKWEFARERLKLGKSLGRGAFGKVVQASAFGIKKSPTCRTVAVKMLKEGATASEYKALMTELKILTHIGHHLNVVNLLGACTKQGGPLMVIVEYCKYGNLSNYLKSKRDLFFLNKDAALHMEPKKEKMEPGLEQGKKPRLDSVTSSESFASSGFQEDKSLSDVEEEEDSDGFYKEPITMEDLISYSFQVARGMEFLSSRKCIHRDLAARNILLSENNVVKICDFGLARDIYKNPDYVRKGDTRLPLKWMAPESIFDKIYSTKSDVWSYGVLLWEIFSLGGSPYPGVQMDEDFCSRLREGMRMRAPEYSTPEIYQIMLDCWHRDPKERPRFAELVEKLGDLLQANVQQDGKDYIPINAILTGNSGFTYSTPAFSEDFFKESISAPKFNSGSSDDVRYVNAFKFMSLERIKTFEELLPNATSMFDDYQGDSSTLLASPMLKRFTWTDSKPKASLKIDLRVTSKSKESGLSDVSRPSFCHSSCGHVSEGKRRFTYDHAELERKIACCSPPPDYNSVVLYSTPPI
# Procedure, shortened: as §1
# PKAcb = biological target: T7, PKAcb (Homo sapiens, UniProt P22694); conditions: duplicate measurements, Km ATP
# T7 construct: gene PRKACB
# Procedure, shortened: as §1
# CDK1/cyclin E = CDK1/cyclin E (Homo sapiens, UniProt P06493); conditions: duplicate measurements, Km ATP
# Procedure, shortened: as §1
# MLK4 = biological target: T8, MLK4 (Homo sapiens, UniProt Q5TCX8); conditions: duplicate measurements, Km ATP; read-out: % Enzyme Activity (relative to DMSO controls) / TP-0005801 (0.3µM) / Data 1
# T8 construct: gene MAP3K21
# Procedure, shortened: as §1
# EPHB1 = EPHB1 (Homo sapiens, UniProt P54762); conditions: duplicate measurements, Km ATP
# Procedure, shortened: as §1
# DAPK2 = DAPK2 (Homo sapiens, UniProt Q9UIK4); conditions: duplicate measurements, Km ATP
# Chain of DAPK2 (Q9UIK4 whole entry): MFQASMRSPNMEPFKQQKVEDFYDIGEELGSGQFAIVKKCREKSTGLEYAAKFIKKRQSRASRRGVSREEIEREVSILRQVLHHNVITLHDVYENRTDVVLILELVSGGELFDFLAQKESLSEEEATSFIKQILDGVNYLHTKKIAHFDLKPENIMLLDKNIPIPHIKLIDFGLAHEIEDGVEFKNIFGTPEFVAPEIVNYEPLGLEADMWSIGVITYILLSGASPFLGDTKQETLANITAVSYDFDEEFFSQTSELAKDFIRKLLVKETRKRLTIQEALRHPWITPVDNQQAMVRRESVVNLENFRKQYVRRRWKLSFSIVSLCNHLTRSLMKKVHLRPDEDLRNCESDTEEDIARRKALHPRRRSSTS
# Procedure, shortened: as §1
# SLK/STK2 = SLK/STK2 (Homo sapiens, UniProt Q9H2G2); conditions: duplicate measurements, Km ATP
# Chain of SLK/STK2 (Q9H2G2 whole entry): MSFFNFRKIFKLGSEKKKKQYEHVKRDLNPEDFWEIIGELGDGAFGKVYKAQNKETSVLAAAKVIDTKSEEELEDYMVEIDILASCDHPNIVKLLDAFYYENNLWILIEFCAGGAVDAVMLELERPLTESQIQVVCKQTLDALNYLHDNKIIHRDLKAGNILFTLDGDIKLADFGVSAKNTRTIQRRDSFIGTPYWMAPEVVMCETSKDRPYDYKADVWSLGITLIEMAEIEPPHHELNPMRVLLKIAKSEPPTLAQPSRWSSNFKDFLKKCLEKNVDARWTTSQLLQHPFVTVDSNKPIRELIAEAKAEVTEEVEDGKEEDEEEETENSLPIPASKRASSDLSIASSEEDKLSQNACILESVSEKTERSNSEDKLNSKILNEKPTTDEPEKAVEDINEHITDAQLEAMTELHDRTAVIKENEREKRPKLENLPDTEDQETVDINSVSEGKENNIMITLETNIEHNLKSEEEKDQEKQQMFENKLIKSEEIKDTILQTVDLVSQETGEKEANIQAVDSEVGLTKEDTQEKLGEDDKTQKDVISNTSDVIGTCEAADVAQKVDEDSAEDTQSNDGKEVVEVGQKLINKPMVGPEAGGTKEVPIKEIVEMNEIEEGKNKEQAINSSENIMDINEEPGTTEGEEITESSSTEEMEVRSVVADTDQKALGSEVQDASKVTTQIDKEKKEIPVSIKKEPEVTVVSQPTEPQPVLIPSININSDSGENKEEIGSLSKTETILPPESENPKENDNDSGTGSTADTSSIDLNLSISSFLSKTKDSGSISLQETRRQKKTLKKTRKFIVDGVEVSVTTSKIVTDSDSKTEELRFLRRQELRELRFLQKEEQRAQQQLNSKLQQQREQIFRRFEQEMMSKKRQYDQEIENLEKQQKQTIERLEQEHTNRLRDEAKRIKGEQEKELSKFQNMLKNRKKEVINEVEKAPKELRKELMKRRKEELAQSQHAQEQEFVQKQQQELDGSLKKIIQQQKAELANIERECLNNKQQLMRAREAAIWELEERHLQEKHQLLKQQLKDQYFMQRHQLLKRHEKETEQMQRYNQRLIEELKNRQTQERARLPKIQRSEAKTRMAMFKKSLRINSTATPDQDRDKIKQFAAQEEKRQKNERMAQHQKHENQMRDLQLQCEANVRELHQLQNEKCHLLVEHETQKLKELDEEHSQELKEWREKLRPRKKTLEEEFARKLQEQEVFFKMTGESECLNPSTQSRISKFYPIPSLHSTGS
# Procedure, shortened: as §1
# MAPKAPK5/PRAK = MAPKAPK5/PRAK (Homo sapiens, UniProt Q8IW41); conditions: duplicate measurements, Km ATP
# Chain of MAPKAPK5/PRAK (Q8IW41 whole entry): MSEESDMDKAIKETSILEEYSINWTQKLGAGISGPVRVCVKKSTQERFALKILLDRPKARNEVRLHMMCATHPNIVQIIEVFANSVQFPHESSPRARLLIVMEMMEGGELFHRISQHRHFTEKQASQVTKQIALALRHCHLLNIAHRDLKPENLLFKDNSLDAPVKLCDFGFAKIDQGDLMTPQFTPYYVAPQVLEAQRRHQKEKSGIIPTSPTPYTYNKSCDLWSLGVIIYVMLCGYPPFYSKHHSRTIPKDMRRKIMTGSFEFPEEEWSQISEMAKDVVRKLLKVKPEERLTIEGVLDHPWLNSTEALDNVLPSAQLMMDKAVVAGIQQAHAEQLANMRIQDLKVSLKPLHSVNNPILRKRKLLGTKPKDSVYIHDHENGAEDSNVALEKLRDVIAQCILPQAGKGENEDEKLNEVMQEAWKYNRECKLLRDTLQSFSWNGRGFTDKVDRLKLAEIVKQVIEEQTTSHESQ
# Procedure, shortened: as §1
# [1] = read-out: % Enzyme Activity (relative to DMSO controls) / TP-0005801 (0.3µM) / Data 1
# [2] = read-out: % Enzyme Activity (relative to DMSO controls) / TP-0005801 (0.3µM) / Data 2
smiles,measurement,setting,value
COc1cc(N2CCN(C)CC2)c(C)cc1Nc1ncc(Br)c(Nc2cccnc2N(C)C)n1 [TP-5801],remaining activity at 0.3 µM,MEKK6; [1],95.3%
same,remaining activity at 0.3 µM,MEKK6; [2],95.2%
same,remaining activity at 0.3 µM,LYN B; [1],99.5%
same,remaining activity at 0.3 µM,LYN B; [2],99.4%
same,remaining activity at 0.3 µM,CK1g2; [1],94.5%
same,remaining activity at 0.3 µM,CK1g2; [2],92.9%
same,remaining activity at 0.3 µM,SSTK/TSSK6; [1],111%
same,remaining activity at 0.3 µM,SSTK/TSSK6; [2],107%
same,remaining activity at 0.3 µM,RAF1; [1],90.8%
same,remaining activity at 0.3 µM,RAF1; [2],90.2%
same,remaining activity at 0.3 µM,GRK5; [1],92%
same,remaining activity at 0.3 µM,GRK5; [2],89.8%
same,remaining activity at 0.3 µM,DCAMKL1; [1],94.9%
same,remaining activity at 0.3 µM,DCAMKL1; [2],93.4%
same,remaining activity at 0.3 µM,IRAK4; [1],90.6%
same,remaining activity at 0.3 µM,IRAK4; [2],89.2%
same,remaining activity at 0.3 µM,PKCd; [1],113%
same,remaining activity at 0.3 µM,PKCd; [2],99.7%
same,remaining activity at 0.3 µM,WEE1; [1],94.2%
same,remaining activity at 0.3 µM,WEE1; [2],93.6%
same,remaining activity at 0.3 µM,NEK11; [1],99.3%
same,remaining activity at 0.3 µM,NEK11; [2],94.5%
same,remaining activity at 0.3 µM,MEK1; [1],95.7%
same,remaining activity at 0.3 µM,MEK1; [2],95.5%
same,remaining activity at 0.3 µM,FLT1/VEGFR1; [1],96.8%
same,remaining activity at 0.3 µM,FLT1/VEGFR1; [2],96.2%
same,remaining activity at 0.3 µM,PKAcb; [1],98%
same,remaining activity at 0.3 µM,PKAcb; [2],96.7%
same,remaining activity at 0.3 µM,CDK1/cyclin E; [1],97.2%
same,remaining activity at 0.3 µM,CDK1/cyclin E; [2],94.9%
same,remaining activity at 0.3 µM,MLK4,106%
same,remaining activity at 0.3 µM,EPHB1; [1],90.7%
same,remaining activity at 0.3 µM,EPHB1; [2],89%
same,remaining activity at 0.3 µM,DAPK2; [1],95.1%
same,remaining activity at 0.3 µM,DAPK2; [2],93.2%
same,remaining activity at 0.3 µM,SLK/STK2; [1],55.6%
same,remaining activity at 0.3 µM,SLK/STK2; [2],48.5%
same,remaining activity at 0.3 µM,MAPKAPK5/PRAK; [1],116%
same,remaining activity at 0.3 µM,MAPKAPK5/PRAK; [2],107%
